Source: PMC4411097, “Pachymic Acid Inhibits Growth and Induces Apoptosis of Pancreatic Cancer In Vitro and In Vivo by Targeting ER Stress” (PLoS ONE, 2015)

Tested on: MIA PaCa-2 cells
Assay: DNA microarray analysis (Affymetrix Human PrimeView)
Assay type: cell-based
[1] = gene SRP19, probeset 11758864_at
[2] = gene STC1, probeset 11750279_a_at
[3] = gene TMEM201, probeset 11726819_at
[4] = gene TNFAIP2, probeset 11717823_s_at
[5] = gene TNFRSF12A, probeset 11745020_a_at
[6] = gene TNFSF18, probeset 11737853_at
[7] = gene TRAF1, probeset 11721588_at
[8] = gene TXNRD1, probeset 11750416_a_at
[9] = gene symbol ---, probeset AFFX-M27830_M_at

## C=C(CC[C@@H](C(=O)O)[C@H]1[C@H](O)C[C@@]2(C)C3=C(CC[C@]12C)[C@@]1(C)CC[C@H](OC(C)=O)C(C)(C)[C@@H]1CC3)C(C)C [PA, Pachymic acid]
Gene SPRY4, probeset 11736669_s_at, MiaPaca-2, PA-treated
  Mean (MiaPaca-2 * PA): 6.19
[1]
  Fold-Change (MiaPaca-2 * PA vs. MiaPaca-2 * control): 1.58
  Mean (MiaPaca-2 * PA): 8.71
[2]
  Fold-Change (MiaPaca-2 * PA vs. MiaPaca-2 * control): 1.56
  Mean (MiaPaca-2 * PA): 5.97
Gene STX1A, probeset 11720340_a_at
  Mean (MiaPaca-2 * PA): 6.73
[3]
  Fold-Change (MiaPaca-2 * PA vs. MiaPaca-2 * control): 1.56
  Mean (MiaPaca-2 * PA): 6.77
Gene TNF, probeset 11721577_at
  Fold-Change (MiaPaca-2 * PA vs. MiaPaca-2 * control): 1.57
  Mean (MiaPaca-2 * PA): 5.89
[4]
  Fold-Change (MiaPaca-2 * PA vs. MiaPaca-2 * control): 1.60
  Mean (MiaPaca-2 * PA): 8.52
[5]
  Fold-Change (MiaPaca-2 * PA vs. MiaPaca-2 * control): 1.59
  Mean (MiaPaca-2 * PA): 9.93
[6]
  Fold-Change (MiaPaca-2 * PA vs. MiaPaca-2 * control): 1.61
  Mean (MiaPaca-2 * PA): 7.58
Gene TRA2B, probeset 11734663_at, MiaPaca-2
  Fold-Change (MiaPaca-2 * PA vs. MiaPaca-2 * control): 1.51
Gene TRA2B, probeset 11734663_at, MiaPaca-2, PA-treated
  Mean (MiaPaca-2 * PA): 5.21
[7]
  Fold-Change (MiaPaca-2 * PA vs. MiaPaca-2 * control): 1.57
  Mean (MiaPaca-2 * PA): 5.45
[8]
  Fold-Change (MiaPaca-2 * PA vs. MiaPaca-2 * control): 1.56
  Mean (MiaPaca-2 * PA): 9.74
[9]
  Fold-Change (MiaPaca-2 * PA vs. MiaPaca-2 * control): 1.54
  Mean (MiaPaca-2 * PA): 11.57
Probeset 11715388_s_at
  Fold-Change (MiaPaca-2 * PA vs. MiaPaca-2 * control), CDKN1A: 1.87
  Mean (MiaPaca-2 * PA), CDKN1A: 8.59
Probeset 11715441_a_at
  Fold-Change (MiaPaca-2 * PA vs. MiaPaca-2 * control), CTGF: 2.27
  Mean (MiaPaca-2 * PA), CTGF: 6.57
Probeset 11715442_s_at
  Fold-Change (MiaPaca-2 * PA vs. MiaPaca-2 * control), CTGF: 2.36
  Mean (MiaPaca-2 * PA), CTGF: 7.76
Probeset 11715493_a_at
  Fold-Change (MiaPaca-2 * PA vs. MiaPaca-2 * control), CYR61: 2.12
  Mean (MiaPaca-2 * PA), CYR61: 10.88
Probeset 11715636_a_at
  Fold-Change (MiaPaca-2 * PA vs. MiaPaca-2 * control), SERPINE1: 1.72
  Mean (MiaPaca-2 * PA), SERPINE1: 9.63
Probeset 11715766_a_at
  Fold-Change (MiaPaca-2 * PA vs. MiaPaca-2 * control), DUSP1: 1.72
  Mean (MiaPaca-2 * PA), DUSP1: 8.75
Probeset 11716939_a_at
  Fold-Change (MiaPaca-2 * PA vs. MiaPaca-2 * control), HMOX1: 1.83
  Mean (MiaPaca-2 * PA), HMOX1: 7.80
Probeset 11717039_a_at
  Fold-Change (MiaPaca-2 * PA vs. MiaPaca-2 * control), GADD45A: 1.88
  Mean (MiaPaca-2 * PA), GADD45A: 11.35
Probeset 11717860_a_at
  Fold-Change (MiaPaca-2 * PA vs. MiaPaca-2 * control), EGR1: 1.78
  Mean (MiaPaca-2 * PA), EGR1: 10.72
Probeset 11718618_a_at
  Fold-Change (MiaPaca-2 * PA vs. MiaPaca-2 * control), DNAJA4: 2.01
  Mean (MiaPaca-2 * PA), DNAJA4: 6.51
Probeset 11718841_s_at
  Fold-Change (MiaPaca-2 * PA vs. MiaPaca-2 * control), IL8: 2.40
  Mean (MiaPaca-2 * PA), IL8: 12.69
Probeset 11718939_s_at
  Fold-Change (MiaPaca-2 * PA vs. MiaPaca-2 * control), TNFAIP3: 2.11
  Mean (MiaPaca-2 * PA), TNFAIP3: 7.50
Probeset 11718940_a_at
  Fold-Change (MiaPaca-2 * PA vs. MiaPaca-2 * control), TNFAIP3: 2.00
  Mean (MiaPaca-2 * PA), TNFAIP3: 6.10
Probeset 11719344_a_at
  Fold-Change (MiaPaca-2 * PA vs. MiaPaca-2 * control), ATF3: 3.30
  Mean (MiaPaca-2 * PA), ATF3: 7.56
Probeset 11719366_s_at
  Fold-Change (MiaPaca-2 * PA vs. MiaPaca-2 * control), CXCL1: 2.03
  Mean (MiaPaca-2 * PA), CXCL1: 12.27
Probeset 11719811_a_at
  Fold-Change (MiaPaca-2 * PA vs. MiaPaca-2 * control), TRIB3: 1.77
  Mean (MiaPaca-2 * PA), TRIB3: 9.38
Probeset 11719898_s_at
  Fold-Change (MiaPaca-2 * PA vs. MiaPaca-2 * control), HBEGF: 2.54
  Mean (MiaPaca-2 * PA), HBEGF: 8.25
Probeset 11719916_at
  Fold-Change (MiaPaca-2 * PA vs. MiaPaca-2 * control), IL1B: 1.90
  Mean (MiaPaca-2 * PA), IL1B: 7.92
Probeset 11720062_s_at
  Fold-Change (MiaPaca-2 * PA vs. MiaPaca-2 * control), IER3: 2.10
  Mean (MiaPaca-2 * PA), IER3: 10.23
Probeset 11722141_at
  Fold-Change (MiaPaca-2 * PA vs. MiaPaca-2 * control), RELB: 1.71
  Mean (MiaPaca-2 * PA), RELB: 7.47
Probeset 11722705_at
  Fold-Change (MiaPaca-2 * PA vs. MiaPaca-2 * control), B3GNT5: 1.83
  Mean (MiaPaca-2 * PA), B3GNT5: 6.95
Probeset 11722850_a_at
  Fold-Change (MiaPaca-2 * PA vs. MiaPaca-2 * control), BIRC3: 1.69
  Mean (MiaPaca-2 * PA), BIRC3: 8.98
Probeset 11722851_at
  Fold-Change (MiaPaca-2 * PA vs. MiaPaca-2 * control), BIRC3: 1.77
  Mean (MiaPaca-2 * PA), BIRC3: 7.17
Probeset 11722867_at
  Fold-Change (MiaPaca-2 * PA vs. MiaPaca-2 * control), CDCP1: 1.68
  Mean (MiaPaca-2 * PA), CDCP1: 8.84
Probeset 11723050_a_at
  Fold-Change (MiaPaca-2 * PA vs. MiaPaca-2 * control), HSPA6: 9.74
  Mean (MiaPaca-2 * PA), HSPA6: 8.06
Probeset 11723753_a_at
  Fold-Change (MiaPaca-2 * PA vs. MiaPaca-2 * control), ZFAND2A: 2.17
  Mean (MiaPaca-2 * PA), ZFAND2A: 9.04
Probeset 11724478_s_at
  Fold-Change (MiaPaca-2 * PA vs. MiaPaca-2 * control), FOSL1: 1.74
  Mean (MiaPaca-2 * PA), FOSL1: 8.17
Probeset 11726329_x_at
  Fold-Change (MiaPaca-2 * PA vs. MiaPaca-2 * control), GBP1: 1.76
  Mean (MiaPaca-2 * PA), GBP1: 5.88
Probeset 11728413_at
  Fold-Change (MiaPaca-2 * PA vs. MiaPaca-2 * control), SERPINB8: 1.95
  Mean (MiaPaca-2 * PA), SERPINB8: 8.88
Probeset 11728476_a_at
  Fold-Change (MiaPaca-2 * PA vs. MiaPaca-2 * control), CXCL3: 2.47
  Mean (MiaPaca-2 * PA), CXCL3: 8.40
Probeset 11728477_at
  Fold-Change (MiaPaca-2 * PA vs. MiaPaca-2 * control), CXCL3: 2.55
  Mean (MiaPaca-2 * PA), CXCL3: 8.95
Probeset 11729119_a_at
  Fold-Change (MiaPaca-2 * PA vs. MiaPaca-2 * control), HSPA1A /// HSPA1B: 1.71
  Mean (MiaPaca-2 * PA), HSPA1A /// HSPA1B: 11.39
